The values that follow come from PubChem BioAssay AID179 (DTP/NCI, 2004).

The EC50 is the concentration giving half of the maximal effect. Broadly, the IC50 is the concentration at which inhibition is half-maximal. Higher therefore signals weaker potency in that assay.

For the assay, the system named is CEM cells HIV-1 protection, formazan growth assay. The assay is described as follows: NCI AIDS Antiviral Assay. To be noted: for IC50: measured here: growth of uninfected CEM cells. The gist of the method: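 Human CEM cells, uninfected and HIV-1-infected, received five drug concentrations, and growth was read by soluble formazan assay. Compounds giving at least 50% protection were retested; reproducible 100% protection defined confirmed active.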

Active and inactive are the calls of the source.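 How the source made its calls: active means compounds giving half or more protection of infected cells from virus-caused growth loss, again on retest; inactive means the rest.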 Where a SMILES comes first, the peptide text is derived from it. The star is where a group is joined. OSu = O=C1CCC(=O)N1O*; Bn = c1ccc(C*)cc1

Regarding `CCc1cccc(C(C)C)c1NC(=O)C(=O)C(Cc1nc2ccccc2[nH]c1=O)C(=O)OC` (configuration not stated), the EC50 was above 112 µM and the concentration for half-maximal inhibition (IC50) was above 112 µM. For `O=C1OCC(CN2CCC(n3c(=O)[nH]c4ccccc43)CC2)=C1c1ccccc1`, the EC50 was above 200 µM and the half-inhibitory concentration (IC50) stood at 30.9 µM. `CN(C)CCC(=O)/C=C\c1ccccc1`: the outcome was inactive. Turning to `COc1cc2c(cc1OC)-c1nc(N)sc1CC2`, the EC50 was above 38 µM and the 50% inhibitory concentration (IC50) was above 38 µM.

Turning to `Cc1cc(C)c(NC(=O)c2cnccn2)c(=O)o1`, the EC50 is above 200 µM and the half-inhibitory concentration (IC50) was above 200 µM. With `O=C(O)CN1CCN2CCOCCN(CC1)CCN(CC(=O)O)CC2`, the EC50 was above 200 µM and the IC50 was above 200 µM.

Consider `O=C(CNc1ccc2c(=S)c3ccccc3[nH]c2c1)Nc1ccccc1-c1ccccc1NC(=O)CNc1ccc2c(=S)c3ccccc3[nH]c2c1`, for which the EC50 was above 13.8 µM and the 50% inhibitory concentration (IC50) stood at 4.47 µM.

Consider `COCOc1ccc(C(=O)C(C)c2ccc(OCOC)cc2OCOC)c(O)c1` (configuration not stated), for which the EC50 is above 200 µM and the IC50 was found to be 25.7 µM. In the case of `CCOP(=O)(OCC)/C(C#N)=C/c1cccc(Br)c1`, the result was inactive. For `CCN(CC)Cc1nc2sc3c(c2c(=O)n1-c1ccccc1)CCCC3`, the EC50 is above 200 µM and the half-inhibitory concentration (IC50) amounted to 39.8 µM. For `COC(=O)c1nc(N)nc(C(=O)OC)c1C(=O)c1ccccc1`, in that order: above 60.3 µM and above 60.3 µM. In the same order, the values of `CCSc1c2cc(OC)ccc2nc2ccc(OC)cc12` are above 200 µM and 6.92 µM. For `C=CCNC(=S)NNC(=S)NCC=C`, in that order: above 200 µM and 23.4 µM. With `CCCNC(C#N)c1ccc(OCCCCCCCCCCOc2ccc(C(C#N)NCCC)cc2)cc1` (configuration not stated), the EC50 was above 200 µM and the IC50 was 11 µM. As to `COC1OC2COC(c3ccccc3)OC2C(OS(=O)(=O)c2ccc(C)cc2)C1OS(=O)(=O)c1ccc(C)cc1` (configuration not stated), the outcome was inactive. Same read-out and setting: in the case of `CCCC(Sc1ccccc1)P(=O)(c1ccccc1)c1ccccc1` (configuration not stated) it was “inactive”. For `S=C1N(c2ccc(Cl)cc2)C2=C(N=Nc3cc(Cl)ccc3Cl)C(=Nc3ccccc3S2)N1c1ccccn1`, the EC50 is above 40.7 µM and the IC50 was above 40.7 µM. Consider `CC1=C(C(=O)Nc2ccc(C)cc2)C(c2cccc([N+](=O)[O-])c2)C(C(=O)Nc2ccc(C)cc2)=C(C)N1`, for which the EC50 was above 14.5 µM and the half-inhibitory concentration (IC50) is above 14.5 µM.

As for `CC(=O)Nc1ccc(S(=O)(=O)Nc2ccc(S(=O)(=O)c3ccc(NC(=O)c4ccccc4SSc4ccccc4C(=O)Nc4ccc(S(=O)(=O)c5ccc(NS(=O)(=O)c6ccc(NC(C)=O)cc6)cc5)cc4)cc3)cc2)cc1`, the EC50 is 24 µM and the IC50 was above 100 µM. Consider `CC(CN=C(N)CSS(=O)(=O)O)OC12CC3CC(CC(C3)C1)C2` (configuration not stated), for which the EC50 is above 200 µM and the half-maximal inhibitory concentration (IC50) is 35.5 µM. For the compound `CN1CCOC1c1ccccc1O` (configuration not stated), the EC50 is above 200 µM and the IC50 is above 200 µM.

On to `Cc1c(COC(=O)NC(C)C)c(COC(=O)NC(C)C)c2n1CS(=O)C2` (configuration not stated), for which the EC50 is above 200 µM and the concentration for half-maximal inhibition (IC50) was 166 µM. In the same order, the values of `N#Cc1c(/C=C/c2ccccc2)c2c([nH]c1=S)CCCCC2` are 339 µM and 501 µM. Turning to `C[C@]12CC[C@H](O)CC1=CC[C@@H]1C2CC[C@@]2(C)C1CC[C@@H]2c1ncc(-c2ccccc2)s1` (some centres not stated), the EC50 was above 11.5 µM and the IC50 was above 11.5 µM.

Take `Cc1ccc2c(c1)C(=O)N1CSCC1C(=O)S2` (configuration not stated): the EC50 was above 251 µM and the IC50 amounted to 32.4 µM.

`CC1=CCC[C@@]2(C)C(CC[C@@H]2C(C)/C=C/C(C)C)c2ccc(cc2C(=O)O)C[C@@H](O)CC1` (some centres not stated): the outcome was inactive. For `COc1cccc(N2C(=O)/C(=C/c3ccc(N(CCC#N)CCC#N)cc3)N=C2c2cc([N+](=O)[O-])ccc2Cl)c1`, the EC50 was above 9.33 µM and the IC50 is above 9.33 µM. Consider `CC(C)=CCC[C@@H](C)C1=C(O)C(Nc2ccccc2Cl)=C(C)C(=O)C1=O`, for which the EC50 is above 200 µM and the half-inhibitory concentration (IC50) is 6.31 µM. In the same order, the values of `CN(C)CCNc1ccc2c(=O)n(CCN(C)C)c(=O)n3c4ccc(O)cc4c(=O)c1c23` are above 0.2 µM and 0.0107 µM. Consider `CN(C)c1cc(CNCCSC(C)(C)C)nc(CNCCSC(C)(C)C)c1`, for which the EC50 was above 200 µM and the IC50 is 4.57 µM. In the same order, the values of `O=S(=O)(F)c1cccc(C[P+](c2ccccc2)(c2ccccc2)c2ccccc2)c1` are above 200 µM and 51.3 µM. For `Oc1cc2ccccc2cc1OC(F)(F)c1nc2ccccc2o1`, in that order: above 200 µM and 12.3 µM. Consider `COc1ccc(OC)c2c3c(ccc12)C(C)(c1ccccc1)OC3=O` (configuration not stated), for which the EC50 is above 191 µM and the IC50 is 89.1 µM. In the same order, the values of `CCOc1cc2c(cc1O)CC[C@@H]1[C@@H]2CC[C@]2(C)C(OS(=O)OC3CC[C@@H]4[C@H]5CCc6cc(O)c(OCC)cc6[C@@H]5CC[C@@]34C)CC[C@@H]12` (some centres not stated) are above 2 µM and 0.537 µM.

For `O=C1c2ccsc2C(=O)c2sccc21`, the EC50 was above 2 µM and the concentration for half-maximal inhibition (IC50) came out at 0.309 µM. `CCC1(CC)C(=O)N(C(=O)c2ccccc2)N(C(=O)c2ccc(Cl)cc2)C1=O`: the EC50 was above 200 µM and the IC50 came out at 50.1 µM. For `Cc1ccc(C)c(NC(=O)CC2Sc3ccccc3NC2=O)c1` (configuration not stated), in that order: above 30.2 µM and above 30.2 µM. With `CCOC(=O)c1c(C)nc2c(c1-c1cn(-c3ccccc3)nc1-c1ccccc1)C(=O)c1ccccc1-2`, the result was inactive.

For `CN(C)c1ccc(N=Nc2cccc3ccoc23)cc1`, the result was inactive.

For the compound `COc1cccc(Nc2nc(NNC(=O)Cc3ccccc3)nc(NNC(=O)c3ccncc3)n2)c1`, the EC50 was above 200 µM and the half-inhibitory concentration (IC50) was above 200 µM. For the compound `CCCOc1csc([C@H]2CCC3[C@@H]4CC=C5C[C@@H](OC(=O)CCC(=O)O)CC[C@]5(C)C4CC[C@@]32C)n1` (some centres not stated), the EC50 was above 47.9 µM and the half-maximal inhibitory concentration (IC50) came to 18.2 µM. Turning to `NC(Cc1ccc(OCc2ccccc2)cc1)C(=O)NC(Cc1ccccc1)C(=O)ON1C(=O)CCC1=O` (configuration not stated) (H-Tyr(Bn)-Phe-OSu; configuration not given here), the result was inactive.

As for `CC(=O)OCC(=O)[C@@]1(O)CC[C@H]2[C@@H]3CCC4=CC(=O)C[C@H](SC(C)=O)[C@]4(C)[C@H]3CC[C@@]21C`, the EC50 was above 200 µM and the IC50 came to 117 µM. `Cc1ccc(Sc2ccccc2N)cc1`: the EC50 was above 178 µM and the IC50 stood at 51.3 µM. For `C[S+](C)(=O)CCCS(=O)(=O)[O-]`, in that order: above 200 µM and above 200 µM. For `Cn1c(=O)c2nc(-c3ccc(Cl)c(Cl)c3)c(-c3ccc(Cl)c(Cl)c3)nc2n(C)c1=O`, in that order: above 200 µM and 29.5 µM. In the same order, the values of `O=S(=O)(O)c1cc(N=Cc2cc(S(=O)(=O)O)c3cccnc3c2O)ccc1/C=C\c1ccc(N=Cc2cc(S(=O)(=O)O)c3cccnc3c2O)cc1S(=O)(=O)O` are above 38.9 µM and above 38.9 µM.

For the compound `CCN(Cc1cccc(S(=O)(=O)[O-])c1)c1ccc(C(=C2C=CC(=[N+](CC)Cc3cccc(S(=O)(=O)O)c3)C=C2)c2ccccc2)cc1`, the 50% effective concentration (EC50) was 148 µM and the IC50 amounted to 186 µM. In the same order, the values of `CCOC(=O)/C(C#N)=C/c1cccc(OC)c1` are above 155 µM and above 155 µM.

For `CCOC(=O)c1nn(Cc2ccccc2)c(=S)[nH]c1=O`, the outcome was inactive and the IC50 worked out at 123 µM.

On to `CCCCCC1OC1C/C=C\CCCCCCCC(=O)OCC(O)COC(=O)CCCCCCC/C=C\CC1OC1CCCCC` (configuration not stated), for which the EC50 was above 200 µM and the half-inhibitory concentration (IC50) was above 200 µM. Take `CC(=O)Nc1cccc(C[P+](c2ccccc2)(c2ccccc2)c2ccccc2)c1`: the EC50 is above 200 µM and the IC50 came to 91.2 µM. For the compound `Cc1sc2ccccc2c2nc3ccccc3c1-2`, the result was inactive. On to `Cc1ccc(S(=O)(=O)N2CCCCCC2)cc1`, for which the EC50 was above 200 µM and the IC50 was above 100 µM. For `Cc1cc(C)c(-c2noc(-c3ccc(Cl)cc3)c2C2=NCCCN2)c(C)c1`, in that order: above 35.5 µM and 24.5 µM.

Consider `C=C(C)[C@@H](C(=O)OC)N1C(=O)c2ccccc2C1=O`, for which the EC50 was above 200 µM and the IC50 is above 200 µM. On to `O=C1c2c(O)ccc(O)c2C(=O)c2c(NCCCCO)ccc(NCCCCO)c21`, for which the 50% effective concentration (EC50) is 15.8 µM and the IC50 amounted to 17.4 µM. In the same order, the values of `O=C1CCC23CC(C=CC=C12)n1c(=O)n(-c2ccccc2)c(=O)n13` (configuration not stated) are above 200 µM and 34.7 µM.

Consider `COC(=O)C1Cc2cc3c(cc2C1=O)CCC3` (configuration not stated), for which the EC50 is above 200 µM and the half-maximal inhibitory concentration (IC50) was 135 µM. Regarding `COc1cc2c(cc1OC)C(=O)Cc1ccc3c(c1CNCC2)OCO3`, the EC50 was above 141 µM and the 50% inhibitory concentration (IC50) is above 141 µM.

As to `C=C1C(C(=O)O)C1C(=O)O` (configuration not stated), the result was inactive. With `CCCCc1ccc(Nc2nc(Cl)c3ncn(COCCOC(C)=O)c3n2)cc1`, the EC50 is above 200 µM and the 50% inhibitory concentration (IC50) amounted to 13.8 µM. In the same order, the values of `CC1(C)CSCC(C)(C)C(=N/N)/C1=N\N` are above 200 µM and above 200 µM.

For the compound `CC12C/C(=C\c3ccccc3)C(=O)C3C1CCCC32`, the result was inactive. As to `Cc1ccc(C)c(C(=O)CC2OC(O)C(Cl)C2Cl)c1` (configuration not stated), the EC50 is above 117 µM and the IC50 amounted to 64.6 µM.

For the compound `COC(=O)C1CCC[C@H]2C(CO)=C(C)C(=O)[C@@H]12` (some centres not stated), the EC50 is 182 µM and the IC50 is above 200 µM. As for `CC(C)(CCCCC(C)(C)NCC1COc2ccccc2O1)NCC1COc2ccccc2O1` (configuration not stated), the EC50 was above 200 µM and the IC50 was 7.24 µM. For `CC(C)(C)C1CCC2(CC1)CO2` (configuration not stated), in that order: above 200 µM and 195 µM. In the same order, the values of `C/C(O)=C(\C=N/C(=S)Nc1ccccc1)C(=O)Nc1ccccc1` are above 200 µM and above 200 µM.
